For assay [1], the target named is T1, Serine/threonine-protein kinase Chk1 (Homo sapiens, UniProt O14757).
T1 sequence (O14757 whole entry): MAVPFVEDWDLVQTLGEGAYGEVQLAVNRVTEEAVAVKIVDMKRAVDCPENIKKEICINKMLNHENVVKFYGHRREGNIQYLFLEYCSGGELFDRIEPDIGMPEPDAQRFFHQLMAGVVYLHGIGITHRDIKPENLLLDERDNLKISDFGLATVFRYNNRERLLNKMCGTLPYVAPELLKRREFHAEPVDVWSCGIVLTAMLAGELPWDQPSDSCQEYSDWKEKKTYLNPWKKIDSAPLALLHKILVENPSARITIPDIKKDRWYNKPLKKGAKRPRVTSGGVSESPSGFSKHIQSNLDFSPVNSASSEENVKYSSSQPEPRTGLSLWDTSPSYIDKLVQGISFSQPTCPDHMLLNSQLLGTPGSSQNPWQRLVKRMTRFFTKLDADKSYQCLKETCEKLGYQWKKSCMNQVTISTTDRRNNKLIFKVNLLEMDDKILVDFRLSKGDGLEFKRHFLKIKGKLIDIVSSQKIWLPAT
Nature of the assay: Inhibition of recombinant Chk1.

Assay [2] has as its target T1, Serine/threonine-protein kinase Chk1. Nature of the assay: Inhibition of human Chk1 in H1299 cells assessed as blockade of Cdc25A degradation. The class given is cell-based.
The next assay deals with HeLa. Nature of the assay: Antiproliferative activity against human HeLa cells after 48 hrs by MTS assay. The class given is functional, cell-based. For orientation: Formazan colour is commonly taken as a measure of viable cells.
The nature of assay [3]: Cell cycle arrest in human H1299 cells assessed as accumulation at G2/M phase by FACS. The settings on record: NCI-H1299. The class given is functional, cell-based.

These results are taken from ChEMBL document CHEMBL1143927, “Investigation of novel 7,8-disubstituted-5,10-dihydro-dibenzo[b,e][1,4]diazepin-11-ones as potent Chk1 inhibitors” (Bioorg Med Chem Lett, 2008).

Usually IC50 stands for the midpoint of a concentration-inhibition curve. What is called EC50 is the concentration that produces a half-maximal response. Consider `COc1cc2c(cc1OCCN1CCOCC1)Nc1cc(-c3ccc([N+](=O)[O-])c(OC)c3)ccc1C(=O)N2`, for which, in assay [1], the IC50 worked out at 8.1 nM. Also, the EC50 in assay [2] worked out at 200 nM; in the assay on HeLa it was 2000 nM; in assay [3] it was 2400 nM.

As to `COc1cc2c(cc1CCCO)Nc1cc(-c3ccc([N+](=O)[O-])c(OC)c3)ccc1C(=O)N2`, the IC50 in assay [1] was 2.6 nM. Also, the EC50 in assay [2] is 1500 nM; with HeLa, > 59000 nM; in assay [3], > 10000 nM.

Take `COc1cc2c(cc1O)Nc1cc(-c3ccc([N+](=O)[O-])c(OC)c3)ccc1C(=O)N2`: the half-maximal inhibitory concentration (IC50) in assay [1] worked out at 0.9 nM. The concentration giving a half-maximal response (EC50) in assay [2] was 70 nM; in the assay on HeLa, > 59000 nM; in assay [3] it was > 10000 nM.

Consider `COc1cc2c(cc1OCc1csc(C)n1)Nc1cc(-c3ccc([N+](=O)[O-])c(OC)c3)ccc1C(=O)N2`, for which, in assay [1], the IC50 worked out at 4 nM. Further, the EC50 in assay [2] was > 10000 nM; with HeLa, > 59000 nM; in assay [3] it was > 10000 nM.

Consider `COc1cc2c(cc1OCc1ccccc1C(F)(F)F)Nc1cc(-c3ccc([N+](=O)[O-])c(OC)c3)ccc1C(=O)N2`, for which the IC50 in assay [1] is 1050 nM. For the same compound, the EC50 was > 59000 nM in the assay with HeLa and > 10000 nM in assay [3].

With `COc1cc2c(cc1OCCCN)Nc1cc(-c3ccc([N+](=O)[O-])c(OC)c3)ccc1C(=O)N2`, the IC50 in assay [1] came to 0.98 nM. Besides, the 50% effective concentration (EC50) in assay [2] is 2600 nM; in the assay on HeLa it was 17300 nM; in assay [3], > 10000 nM.

In the case of `COc1cc2c(cc1OCCO)Nc1cc(-c3ccc([N+](=O)[O-])c(OC)c3)ccc1C(=O)N2`, the IC50 in assay [1] came to 0.58 nM. Moreover, the values for the EC50 (in assay [2]; in the assay on HeLa; in assay [3]) were 3100 nM, > 59000 nM and > 10000 nM, respectively.

On to `COc1cc2c(cc1CCO)Nc1cc(-c3ccc([N+](=O)[O-])c(OC)c3)ccc1C(=O)N2`, for which the IC50 in assay [1] stood at 3.5 nM. The results for the EC50 (in assay [2]; in the assay on HeLa; in assay [3]) were 900 nM, > 59000 nM and > 10000 nM, respectively.

With `COc1cc2c(cc1CCc1ccncc1)Nc1cc(-c3ccc([N+](=O)[O-])c(OC)c3)ccc1C(=O)N2`, the IC50 in assay [1] turned out to be 16.2 nM. The results for the EC50 (in assay [2]; in the assay on HeLa; in assay [3]) were 2100 nM, 9600 nM and > 10000 nM, respectively.

With `COCCOCCOc1cc2c(cc1OC)NC(=O)c1ccc(-c3ccc([N+](=O)[O-])c(OC)c3)cc1N2`, in assay [1], the IC50 came to 3.1 nM. The figures for the 50% effective concentration (EC50) (in assay [2]; in the assay with HeLa; in assay [3]) were 3100 nM, 52000 nM and > 10000 nM, respectively.

`COc1cc2c(cc1OC)Nc1cc(-c3ccc([N+](=O)[O-])c(OC)c3)ccc1C(=O)N2`: the IC50 in assay [1] is 0.6 nM. Further, the figures for the EC50 (in assay [2]; in the assay with HeLa; in assay [3]) were 280 nM, > 59000 nM and > 10000 nM, respectively.

`COC(=O)CCc1cc2c(cc1OC)NC(=O)c1ccc(-c3ccc([N+](=O)[O-])c(OC)c3)cc1N2`: in assay [1], the IC50 turned out to be 22 nM. In addition, the EC50 in assay [2] is > 10000 nM; in the assay with HeLa it was > 59000 nM; in assay [3] it was > 10000 nM.

Turning to `COc1cc2c(cc1OCCCCO)Nc1cc(-c3ccc([N+](=O)[O-])c(OC)c3)ccc1C(=O)N2`, the IC50 in assay [1] worked out at 0.7 nM. In addition, the EC50 is 2000 nM in assay [2], > 59000 nM with HeLa and > 10000 nM in assay [3].

With `COc1cc2c(cc1CC(C)(C)O)Nc1cc(-c3ccc([N+](=O)[O-])c(OC)c3)ccc1C(=O)N2`, the half-inhibitory concentration (IC50) in assay [1] is 3.4 nM. The EC50 was 40 nM in assay [2], > 59000 nM in the assay on HeLa and 1800 nM in assay [3].

As to `COc1cc2c(cc1CCC(C)(C)O)Nc1cc(-c3ccc([N+](=O)[O-])c(OC)c3)ccc1C(=O)N2`, in assay [1], the IC50 was determined as 4 nM. The EC50 in assay [2] is 600 nM; in the assay on HeLa, > 59000 nM; in assay [3] it was > 10000 nM.

With `CCc1cc2c(cc1OC)Nc1cc(-c3ccc([N+](=O)[O-])c(OC)c3)ccc1C(=O)N2`, the IC50 in assay [1] worked out at 9 nM. Also, the concentration giving a half-maximal response (EC50) in assay [2] is 350 nM; in the assay with HeLa, 4500 nM; in assay [3], > 10000 nM.

On to `COC(=O)c1cc2c(cc1OC)Nc1cc(-c3ccc([N+](=O)[O-])c(OC)c3)ccc1C(=O)N2`, for which, in assay [1], the IC50 amounted to 11.2 nM. The EC50 in assay [2] was > 10000 nM; in the assay with HeLa, > 59000 nM; in assay [3], > 10000 nM.

Consider `COc1cc(-c2ccc3c(c2)Nc2ccccc2NC3=O)ccc1[N+](=O)[O-]`, for which the EC50 in the assay on HeLa was 47700 nM.

For `COc1cc2c(cc1CCCO)NC(=O)c1ccc(-c3ccc([N+](=O)[O-])c(OC)c3)cc1N2`, the IC50 in assay [1] came to 1.9 nM. For the same compound, the EC50 in assay [2] came out at 220 nM; in the assay on HeLa, 22000 nM; in assay [3] it was 4300 nM.

As to `COc1cc2c(cc1OCC1CCCCO1)Nc1cc(-c3ccc([N+](=O)[O-])c(OC)c3)ccc1C(=O)N2` (stereo not drawn), the IC50 in assay [1] was determined as 4.8 nM. The values for the EC50 (in assay [2]; in the assay with HeLa; in assay [3]) were 200 nM, 2000 nM and 2400 nM, respectively.

On to `COc1cc2c(cc1CCC(=O)N(C)C)Nc1cc(-c3ccc([N+](=O)[O-])c(OC)c3)ccc1C(=O)N2`, for which, in assay [1], the 50% inhibitory concentration (IC50) amounted to 7.9 nM. Moreover, the EC50 in assay [2] is 50 nM; with HeLa, > 59000 nM; in assay [3], > 10000 nM.

Take `COc1cc2c(cc1OCc1ccncc1)Nc1cc(-c3ccc([N+](=O)[O-])c(OC)c3)ccc1C(=O)N2`: the IC50 in assay [1] was found to be 6.8 nM. For the same compound, the EC50 in assay [2] is 50 nM; with HeLa, > 59000 nM; in assay [3], > 10000 nM.

Consider `COc1cc2c(cc1C(=O)N(C)C)NC(=O)c1ccc(-c3ccc([N+](=O)[O-])c(OC)c3)cc1N2`, for which the IC50 in assay [1] stood at 15.5 nM. For the same compound, the figures for the EC50 (in assay [2]; with HeLa; in assay [3]) were 3500 nM, 45000 nM and > 10000 nM, respectively.
